The values below come from patent US4746675A, “External pharmaceutical composition” (Teijin Limited, priority 1983, dated 1988).

Data set [1] can be described thus: diffusion of drug through egg shell membrane in diffusion cell. It counts as in vitro ADME. As for the experimental part:
A diffusion cell was partitioned by an egg shell membrane. […] While maintaining a temperature of 37° C., the two liquid phases were stirred, and after a lapse of a predetermined period of time, the amount of the drug which diffused into the acceptor side from the donor side was measured.
The diffusion cell used was a glass cell for use in an ordinary diffusion experiment. The egg shell was obtained by removing the contents of an egg from the shell, immersing the shell in 0.7% acetic acid for 30 minutes, subjecting it to ultrasonication for 15 minutes, and carefully peeling the membrane from the shell.
A control test was carried out in the same way as above except that only the drug was added to the donor side.
The amount of the drug which diffused to the acceptor side was measured 30 minutes later, and compared with the control.
The relative amount of the drug diffused from the drug-penetration enhancer system was calculated by taking the amount of the drug diffused from the control donor side as 100. […] Bull., Vol. 20, p.

The subject of a further data set is carrageenan edema. The data set is described as follows: carrageenan edema inhibiting effect of betamethasone valerate ointments. To be noted: Table 5, betamethasone valerate ointment with penetration enhancer. It counts as in vivo, rat. An outline of the steps:
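Rat carrageenan paw edema: 0.1 ml of 1% carrageenan injected into the right hind paw of 150–175 g rats. Ointment containing 0.15 part betamethasone valerate plus penetration enhancer, 100 mg, applied to the inflamed site at 0.5, 1 and 2 h. Paw volume measured by mercury displacement at 0, 3, 5 and 6 h.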
On the technique in general: Carrageenan injected into the paw causes an acute inflammation.

For a further data set, the system named is blood glucose level. The data set is described as follows: blood glucose after intrarectal administration of hog insulin suppository to rabbits. The data set is classed as in vivo, rabbit. To be noted: for Percent decrease of the blood glucose level from that before the administration: hog insulin 9.6 units, intrarectal, rabbit. As for the experimental part:
Sixty parts by weight of fractionated coconut oil and 10 parts by weight of compound (168) or compound (173) were uniformly mixed, and then hog insulin was gradually added to form a uniform dispersion. The dispersion was filled in a gelatin capsule for suppositories to form a gelatin capsular suppository. These suppository contained 9.6 units of insulin. The suppository was intrarectally administered to a rabbit, and the blood glucose level after administration was measured by the glucose oxidase method.

The test system of another data set is serum calcium level. The data set is described as follows: serum calcium after intrarectal administration of calcitonin composition to rats. It counts as in vivo, rat. To be noted: versus the comparative suppository. An excerpt: Cacao butter (93 parts by weight) and 7 parts by weight of compound (168) or compound (173) were uniformly mixed, and (Asu^1.7)-eel calcitonin was gradually added and mixed to form a uniform composition. The composition was slightly warmed, and placed into a suppository container to form a suppository for rats having a diameter of about 3 mm and a length of about 6 mm. This suppository contained 0.7 MRC unit of calcitonin. The suppository was intrarectally administered to a rat, and the concentration of calcium in the blood serum after administration was measured by using a calcium measuring kit (made by Iatoron Co.).
Various […] were prepared from cacao butter, the various penetration enhancers shown in Table 12 and [Asu^1.7 ]-eel calcitonin, and tested in the same way as in Example 85.

Data set [2] can be described thus: concentration of indomethacin in rat blood after application of ointment to the back. To be noted: rat, in vivo. The procedure: An ointment was prepared from 1 part by weight of indomethacin, 10 parts by weight of compound (168) and 89 parts by weight of a hydrophilic ointment (composed of 250 parts of white Vaseline, 220 parts by weight of stearyl alcohol, 120 parts by weight of propylene glycol, 15 parts by weight of sodium laurylsulfate, 0.25 part by weight of ethyl p-hydroxybenzoate, 0.15 part by weight of propyl p-hydroxybenzoate and a small amount of purified water). The back of a rat (body weight about 250 g) was cut by an electric hair-clipper, and 100 mg of the resulting ointment was applied by a finger to a circular unhaired portion, 4 cm in diameter. The blood was drawn from the tail of the rat periodically, and the concentration of indomethacin in the blood was determined periodically by high-performance liquid chromatography.
Various ointments were prepared from 1 part by weight of indomethacin, 10 parts of each of various penetration enhancers shown in Table 2 and the hydrophilic ointment, and tested as in Example 1.

[3] abbreviates: 30 minutes, drug 0.05% with compound (168) 1.0% on donor side, drug alone = 100, 37° C.

Like-named read-outs stand apart in the source and are kept apart here.

With `O=c1[nH]cc(F)c(=O)[nH]1` [5-Fluorouracil], the “Relative amount of the drug diffused” value in data set [1] (setting [3]) is 208. As to `Cc1ccc(Cl)c(OCC(O)CNC(C)(C)C)c1` (centres unmarked) [Bupranolol], the “Relative amount of the drug diffused” value in data set [1] came to 141. For `CC(=O)OCC1=C(C(=O)O)N2C(=O)[C@@H](NC(=O)Cc3cccs3)[C@H]2SC1` [Cephalothin], in data set [1] (setting [3]), the “Relative amount of the drug diffused” value is 139.

As to `CN(C)CCCN1c2ccccc2Sc2ccc(Cl)cc21` [Chlorpromazine], in data set [1] (setting [3]), the “Relative amount of the drug diffused” value came to 133.

Take `CCCCCCCCCCCCCCCCCC(=O)OCC(O)COC(=O)[C@@H]1CCC(=O)N1` (some centres unmarked) [Compound (173), 2-hydroxy-3-octadecanoyloxy-1-pyroglutamyloxypropane]: the “Percentage inhibition vs. control” value stood at 15.3% in the data set on carrageenan edema (3 hrs), 32.3% in the data set on carrageenan edema (5 hrs) and 33.4% in the data set on carrageenan edema (6 hrs). Moreover, the “Percent decrease of the blood glucose level from that before the administration” value in the data set on blood glucose level (30 min) was 29.4%; with blood glucose level (1 hr), 33.3%; in the data set on blood glucose level (2 hrs), 18.6%; in the data set with blood glucose level (3 hrs), 3.7%. In the data set on blood glucose level (versus the comparative suppository), the “absorption of insulin from the suppository” value is on record as “better”. Further, the “absorption of calcitonin from the suppository” value with serum calcium level is “better”. Take `CN1C(=O)CN=C(c2ccccc2)c2cc(Cl)ccc21` [Diazepam]: the “Relative amount of the drug diffused” value in data set [1] (setting [3]) turned out to be 144. As for `C[C@]12CC[C@@H]3c4ccc(O)cc4CC[C@H]3[C@@H]1CC[C@@H]2O` [Estradiol], the “Relative amount of the drug diffused” value in data set [1] was determined as 181. Consider `COC1=CC(=O)C[C@@H](C)[C@]12Oc1c(Cl)c(OC)cc(OC)c1C2=O` [Griseofulvin], for which the “Relative amount of the drug diffused” value in data set [1] is 209. For the compound `COc1ccc2c(c1)c(CC(=O)O)c(C)n2C(=O)c1ccc(Cl)cc1` [Indomethacin], the “Relative amount of the drug diffused” value in data set [1] (setting [3]) turned out to be 217. `C[C@](N)(Cc1ccc(O)c(O)c1)C(=O)O` [Methyldopa]: the “Relative amount of the drug diffused” value in data set [1] (setting [3]) is listed as 137. For the compound `CN1C(C(=O)Nc2ccccn2)=C(O)c2ccccc2S1(=O)=O` [Piroxicam], in data set [1], the “Relative amount of the drug diffused” value was found to be 177. Consider `CCN(CC)CCOC(=O)c1ccc(N)cc1` [Procaine], for which, in data set [1] (setting [3]), the “Relative amount of the drug diffused” value was found to be 149.

Turning to `O=C1CC[C@@H](C(=O)O)N1` [Pyroglutamic acid, pyroglutamic acid], the “Concentration of indomethacin in the blood” value in data set [2] (60 min) was determined as 1400 ng/mL; in data set [2] (180 min), 2200 ng/mL; in data set [2] (300 min) it was 2000 ng/mL; in data set [2] (420 min), 1800 ng/mL; in data set [2] (1440 min) it was 700 ng/mL. Turning to `O=C(O)c1ccccc1O` [Salicylic acid], the “Relative amount of the drug diffused” value in data set [1] (setting [3]) came to 203. Still for that read-out and setting: as for `CN1[C@@H]2C[C@@H](OC(=O)[C@H](CO)c3ccccc3)C[C@H]1[C@@H]1O[C@@H]12` [Scopolamine], the figure is 116. As to `O=C(O)c1cc(=O)c2c(OCC(O)COc3cccc4oc(C(=O)O)cc(=O)c34)cccc2o1` [Sodium cromoglicate], the “Relative amount of the drug diffused” value in data set [1] came to 159. `CC1(C)O[C@@H]2C[C@H]3[C@@H]4CCC5=CC(=O)C=C[C@]5(C)[C@@]4(F)[C@@H](O)C[C@]3(C)[C@]2(C(=O)CO)O1` [Triamcinolone acetonide]: the “Relative amount of the drug diffused” value in data set [1] (setting [3]) was found to be 214. For the compound `Nc1ccc(C(=O)O)cc1` [p-Aminobenzoic acid], in data set [1], the “Relative amount of the drug diffused” value worked out at 122.

As to Urokinase, the “Relative amount of the drug diffused” value in data set [1] (setting [3]) worked out at 115. For iso-Sorbitol nitrate, the “Relative amount of the drug diffused” value in data set [1] (setting [3]) was 128.
